# According to patent US5216001A, “Indole derivatives” (H. Lunbeck A/S, priority 1990, dated 1993):
# Molecular target: T1, dopamine D-2 receptors (Rattus norvegicus, UniProt P61169)
# T1 construct: striatal tissue is dissected and weighed; from tissue; host or cells: corpus striatum membranes of male Wistar rats
# Test: inhibition of 3H-spiperone binding to dopamine D-2 receptors in rat corpus striatum in vitro
# Details: not given
# Procedure: INHIBITION OF ^3 H-SPIPERONE BINDING TO DOPAMINE D-2 RECEPTORS IN RAT CORPUS STRIATUM IN VITRO
# By this method the inhibition by drugs of the binding of ^3 H-spiperone (0.5 nM) to dopamine D-2 receptors in membranes from rat corpus striatum is determined in vitro. Method and results in Hyttel and Larsen, J. Neurochem, 44, 1615-1622, 1985).
# Male Wistar (Mol:Wistar) rats (125-250 g) are sacrificed and striatal tissue is dissected and weighed. The tissue is homogenized (Ultra Turrax, 10 sec.) in 10 ml of ice-cold 50 mM K-phosphate buffer pH 7.4 (at 25° C.). The homogenate is centrifuged twice at 20,000 g for 10 min. at 4° C. with rehomogenization of the pellet in 10 ml ice-cold buffer. The final pellet is homogenized in 1300 vol (w/v) ice-cold buffer.
# Incubation tubes kept on ice in triplicate receive 100 μl of drug solution in water (or water for total binding) and 4000 μl of tissue suspension (final tissue content corresponds to 3.08 mg original tissue). The binding experimental is initiated by addition of 100 μl of ^3 H-spiperone (final concentration 0.5 nM) and by placing the tubes in a 37° C. water bath. After incubation for 10 min. the samples are filtered under vacuum (0-50 mBar) through Whatman GF/F filters (25 mm). The tubes are rinsed with 5 ml ice-cold buffer which are then poured on the filters. Thereafter, the filters are washed with 2×5 ml of buffer. The filters are placed in counting vials and 4 ml of appropriate scintillation fluid (e.g. Picofluor ™15) are added. After shaking for 1 h and storage 2 hrs in the dark the content of radioactivity is determined by liquid scintillation counting. Specific binding is obtained by subtracting the nonspecific binding in the presence of 10 μM of 6,7-ADTN.
# For determination of the inhibition of binding five concentrations of drugs covering 3 decades are used.
# England, specific activity 15-25 Ci/mmol.
# T1 sequence (P61169 whole entry): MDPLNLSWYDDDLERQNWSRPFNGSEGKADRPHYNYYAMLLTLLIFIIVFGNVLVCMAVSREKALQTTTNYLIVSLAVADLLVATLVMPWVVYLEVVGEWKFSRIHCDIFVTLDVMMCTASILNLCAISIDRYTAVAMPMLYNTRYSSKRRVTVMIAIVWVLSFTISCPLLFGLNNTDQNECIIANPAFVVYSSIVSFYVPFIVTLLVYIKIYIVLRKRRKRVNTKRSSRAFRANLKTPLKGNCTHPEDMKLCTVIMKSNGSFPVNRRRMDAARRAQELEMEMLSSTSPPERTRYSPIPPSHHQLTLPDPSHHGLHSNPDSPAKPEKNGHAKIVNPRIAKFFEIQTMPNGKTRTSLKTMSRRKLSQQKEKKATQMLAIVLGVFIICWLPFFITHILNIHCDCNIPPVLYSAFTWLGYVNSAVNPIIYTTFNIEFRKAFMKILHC
row,Structure (SMILES),IC50 [nM]
1,"Cc1ccc2c(C3=CCN(CCN4CCN(C(C)C)C4=O)CC3)cn(-c3ccc(F)cc3)c2c1 [Compound 2b, 1-(4-fluorophenyl)-6-methyl-3-[1-[2-[3-(2-propyl)-2-imidazolidinon-1-yl]ethyl]-1,2,3,6-tetrahydropyridin-4-yl]-1H-indole]",67

# Same assay, conditions: 3H-spiperone 0.5 nM, rat corpus striatum membranes, in vitro; read-out: Binding IC50, 3H Spi.
row,Structure (SMILES),IC50 [nM]
1,"COc1ccc2c(C3CCN(CCN4CCOC4=O)CC3)cn(-c3ccc(F)cc3)c2c1 [Compound 4j, 1-(4-fluorophenyl)-6-methoxy-3-[1-[2-(2-oxazolidinon-1-yl]ethyl]-4-piperidyl]-1H-indole]",1100
2,"CC(C)N1CCN(CCN2CCC(c3cn(-c4ccc(F)cc4)c4cc(S(C)(=O)=O)ccc34)CC2)C1=O [Compound 4k, 1-(4-fluorophenyl)-6-methylsulfonyl-3-[1-[2-[3-(2-propyl)-2-imidazolidinon-1-yl]ethyl]-4-piperidyl]-1H-indole]",600

# Molecular target: T2, serotonin S2 (5-HT2) receptors (Rattus norvegicus, UniProt P14842)
# T2 construct: cortical tissue is dissected and weighed; from tissue; host or cells: cerebral cortex membranes of male Wistar (Mol:Wist) rats
# Test: inhibition of 3H-ketanserin binding to serotonin S2 (5-HT2) receptors in rat cortex in vitro
# Details: 3H-ketanserin 0.5 nM, rat cortex membranes, read-out: Binding IC50, 3H Ket.
# Procedure: Method in Hyttel, Pharmacology & Toxicology, 61, 126-129. 1987.
# Male Wistar (Mol:Wist) rats (125-250 g) are sacrifices and cortical tissue is dissected and weighed. The tissue is homogenized (Ultra Turrax, 10 sec.) in 10 ml of ice-cold 50 mM tris buffer pH 7.7 (at 25° C.). The centrifuge glassware used in this step has been rinsed by sonication for 10 min. in ethanol. The homogenate is centrifuged twice at 20,000 g for 10 min. at 4° C. with rehomogenization of the pellet in 10 ml ice-cold buffer. The final pellet is homogenized in 500 vol (w/v) ice-cold buffer.
# Incubation tubes kept on ice in triplicate receive 100 μl of drug solution in water (or water for total binding) and 2000 μl of tissue suspension (final tissue content corresponds to 4 mg original tissue). […] After incubation for 30 min. the samples are filtered under vacuum (0-50 mBar) through Whatman GF/F filters (25 mm). The tubes are rinsed with 5 ml ice-cold buffer which are then poured on the filters. Thereafter, the filters are washed with 2×5 ml of buffer. The filters are placed in counting vials and 4 ml of appropriate scintillation fluid (e.g., Picofluor™15) are added. After shaking for 1 h and storage 2 hrs in the dark the content of radioactivity is determined by liquid scintillation counting. Specific binding is obtained by subtracting the nonspecific binding in the presence of 1 μM mianserin. For determination of the inhibition of binding five concentrations of drugs covering 3 decades are used.
# The IC50 value is determined as the concentration at which the binding is 50% of the total binding in control samples minus the nonspecific binding in the presence of 1 μM mianserin.
# T2 sequence (P14842 whole entry): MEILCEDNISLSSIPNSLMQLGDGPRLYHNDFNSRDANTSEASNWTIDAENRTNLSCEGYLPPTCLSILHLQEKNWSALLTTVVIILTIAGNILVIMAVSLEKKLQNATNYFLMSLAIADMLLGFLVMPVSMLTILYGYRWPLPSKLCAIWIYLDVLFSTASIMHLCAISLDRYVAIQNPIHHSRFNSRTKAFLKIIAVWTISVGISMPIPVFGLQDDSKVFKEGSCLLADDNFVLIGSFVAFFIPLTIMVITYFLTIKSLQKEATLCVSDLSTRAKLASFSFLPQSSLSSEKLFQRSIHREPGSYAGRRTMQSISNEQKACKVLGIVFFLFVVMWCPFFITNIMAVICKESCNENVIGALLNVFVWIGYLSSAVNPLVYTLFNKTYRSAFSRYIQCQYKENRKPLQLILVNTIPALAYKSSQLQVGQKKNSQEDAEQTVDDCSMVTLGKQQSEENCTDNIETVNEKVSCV
row,Structure (SMILES),IC50 [nM]
1,"Cc1ccc2c(C3=CCN(CCN4CCN(C(C)C)C4=O)CC3)cn(-c3ccc(F)cc3)c2c1 [Compound 2b, 1-(4-fluorophenyl)-6-methyl-3-[1-[2-[3-(2-propyl)-2-imidazolidinon-1-yl]ethyl]-1,2,3,6-tetrahydropyridin-4-yl]-1H-indole]",1.9
2,"O=C1NCCN1CCN1CCC(c2cn(-c3ccc(F)cc3)c3cc(C(F)(F)F)ccc23)CC1 [Compound 4d, 1-(4-fluorophenyl)-3-[1-[2-(2-imidazolidinon-1-yl)ethyl]-4-piperidyl]-6-trifluoromethyl-1H-indole]",1.7
3,"OCCN1CCC(c2cn(-c3ccc(F)cc3)c3cc(Cl)ccc23)CC1 [Compound 4f, 6-chloro-1-(4-fluorophenyl)-3-[1-(2-hydroxyethyl)-4-piperidyl]-1H-indole]",11
4,"O=C1NCCN1CCN1CCC(c2cn(-c3ccc(F)cc3)c3cc(Br)ccc23)CC1 [Compound 4h, 6-bromo-1-(4-fluorophenyl)-3-[1-[2-(2-imidazolidinon-1-yl)ethyl-]-4-piperidyl]-1H-indole]",1.8
5,"COc1ccc2c(C3CCN(CCN4CCOC4=O)CC3)cn(-c3ccc(F)cc3)c2c1 [Compound 4j, 1-(4-fluorophenyl)-6-methoxy-3-[1-[2-(2-oxazolidinon-1-yl]ethyl]-4-piperidyl]-1H-indole]",40
6,"CC(C)N1CCN(CCN2CCC(c3cn(-c4ccc(F)cc4)c4cc(S(C)(=O)=O)ccc34)CC2)C1=O [Compound 4k, 1-(4-fluorophenyl)-6-methylsulfonyl-3-[1-[2-[3-(2-propyl)-2-imidazolidinon-1-yl]ethyl]-4-piperidyl]-1H-indole]",9
7,"CC(C)N1CCN(CCN2CCC(c3cn(-c4ccc(F)cc4)c4cc(Br)ccc34)CC2)C1=O [Compound 5b, 6-bromo-1-(4-fluorophenyl)-3-[1-[2-[3-(2-propyl)-2-imidazolidinon-1-yl]ethyl]-4-piperidyl]-1H-indole]",2
8,"CC(C)c1ccc2c(C3CCN(CCN4CCNC4=O)CC3)cn(-c3ccc(F)cc3)c2c1 [Compound 5d, 1-(4-fluorophenyl)-6-(2-propyl)-3-[1-[2-(2-imidazolidinon-1-yl)ethyl]-4-piperidyl]-1H-indole]",18
9,"CC(C)N1CCN(CCN2CCC(c3cn(-c4ccc(F)cc4)c4cc(Cl)c(Cl)cc34)CC2)C1=O [Compound 5e, 5,6-dichloro-1-(4-fluorophenyl)-3-[1-[2-[3-(2-propyl)-2-imidazolidinon-1-yl]ethyl]-4-piperidyl]-1H-indole]",3.4
10,"CC(C)N1CCN(CCN2CCC(c3cn(-c4ccc(F)cc4)c4cc5c(cc34)CCC5)CC2)C1=O [Compound 5g, 1-(4-fluorophenyl)-3-[1-[2-[3-(2-propyl)-2-imidazolidinon-1-yl]ethyl]-4-piperidyl]-1,5,6,7-tetrahydrocyclopent[f]-1H-indole]",3.2
11,"O=C1NCCN1CCN1CCC(c2cn(-c3ccc(F)cc3)c3cc4c(cc23)CCC4)CC1 [Compound 5h, 1-(4-fluorophenyl)-3-[1-[2-(2-imidazolidinon-1-yl)ethyl]-4-piperidyl]-1,5,6,7-tetrahydrocyclopent[f]-1H-indole]",1.2
12,"CNC(=S)NCCN1CCC(c2cn(-c3ccc(F)cc3)c3cc(Cl)ccc23)CC1 [Compound 9c, 6-chloro-1-(4-fluorophenyl)-3-[1-[2-(3-methyl-1-thioureido)-1-ethyl]-4-piperidyl]-1H-indole]",12
13,"CCN(CCN1CCC(c2cn(-c3ccc(F)cc3)c3cc(Cl)ccc23)CC1)C(=O)N(C)C [Compound 9e, 6-chloro-3-[1-[2-(3,3-dimethyl-1-ethyl-1-ureido)-1-ethyl]-4-piperidyl]-1-(4-fluorophenyl)-1H-indole]",6.4
14,CN(C)C(=S)NCCN1CCC(c2cn(-c3ccc(F)cc3)c3cc(Cl)ccc23)CC1 [Compound 9f],2.5
15,"CC(C)N(C)C(=O)NCCN1CCC(c2cn(-c3ccc(F)cc3)c3cc(Cl)ccc23)CC1 [Compound 9g, 6-chloro-1-(4-fluorophenyl)-3-[1-[2-[3-methyl-3-(2-propyl)-1-ureido]-1-ethyl]-4-piperidyl]-1H-indole]",6.2
16,"CNC(=O)N(C)CCN1CCC(c2cn(-c3ccc(F)cc3)c3cc(Cl)ccc23)CC1 [Compound 9h, 6-chloro-1-(4-fluorophenyl)-3-[1-[2-(1,3-dimethyl-1-ureido)-1-ethyl]-4-piperidyl]-1H-indole]",1.6
17,"CC(C)NC(=O)N(C)CCN1CCC(c2cn(-c3ccc(F)cc3)c3cc(Cl)ccc23)CC1 [Compound 9i, 6-chloro-1-(4-fluorophenyl)-3-[1-[2-(1-methyl-3-(2-propyl)-1-ureido)-1-ethyl]-4-piperidyl]-1H-indole]",2.2
18,CC(=O)NCCN1CCC(c2cn(-c3ccc(F)cc3)c3cc(Cl)ccc23)CC1 [Compound 9j],11
19,CCOC(=O)NCCN1CCC(c2cn(-c3ccc(F)cc3)c3cc(Cl)ccc23)CC1 [Compound 9k],4
20,"CN(C)C(=O)NCCN1CCC(c2cn(-c3ccc(F)cc3)c3cc(Cl)ccc23)CC1 [Compound 9l, 6-chloro-3-[1-[2-(3,3-dimethyl-1-ureido)-1-ethyl]-4-piperidyl]-1-(4-fluorophenyl)-1H-indole]",1.3
21,"Fc1ccc(-n2cc(C3CCN(CCN4CCNC4=S)CC3)c3ccc(Cl)cc32)cc1 [Compound 12a, 6-chloro-1-(4-fluorophenyl)-3-[1-[2-(2-imidazolidinthion-1-yl)ethyl]-4-piperidyl]-1H-indole]",6.2
22,"CC(C)N1CCN(CCN2CCC(c3cn(-c4ccccc4)c4cc(Cl)ccc34)CC2)C1=O [Compound 15k, 6-chloro-1-phenyl-3-[1-[2-[3-(2-propyl)-2-imidazolidinon-1-yl]ethyl]-4-piperidyl]-1H-indole]",4.5
23,"CC(C)n1ccn(CCN2CCC(c3cn(-c4ccc(F)cc4)c4cc(Cl)ccc34)CC2)c1=O [Compound 17a, 6-chloro-1-(4-fluorophenyl)-3-[1-[2-[3-(2-propyl)imidazol-2-on-1-yl]ethyl]-4-piperidyl]-1H-indole]",4.6
24,"O=C1N(CCO)CCN1CCN1CCC(c2cn(-c3ccc(F)cc3)c3cc(Cl)ccc23)CC1 [Compound 18a, 6-chloro-1(4-fluorophenyl)-3-[1-[2-[3-(2-hydroxyethyl)-2-imidazolidinon-1-yl]e-thyl]-4-piperidyl]-1H-indole]",2.5
25,"CSc1ccc2c(C3CCN(CCN4CCN(C(C)C)C4=O)CC3)cn(-c3ccc(F)cc3)c2c1 [Compound 19a, 1-(4-fluorophenyl)-6-methylthio-3-[1-[2-[3-(2-propyl)-2-imidazolidinon-1-yl]ethyl]-4-piperidyl]-1H-indole]",3.2
26,"CC(C)N1CCN(CCN2CCC(C3CN(c4ccc(F)cc4)c4cc(Cl)ccc43)CC2)C1=O (stereo not drawn) [Compound 21a, 6-chloro-1-(4-fluorophenyl)-3-[1-[2-[3-(2-propyl)-2-imidazolidinon-1-yl]ethyl]-4-piperidyl]-2,3-dihydro-1H-indole]",9.6
27,"Cc1c(C2=CCN(CCN3CCNC3=O)CC2)c2ccccc2n1-c1ccc(F)cc1 [Compound 24b, 1-(4-fluoropheyl)-3-[1-[2-(2-imidazolidinon-1-yl)ethyl]-1,2,3,6tetrahydropyridin-4-yl]-2-methyl-1H-indole]",1
